One block for each molecule: values may come before it.
Experiments:
[1] = Inhibition of wild type EGFR in mouse BAF3 cells assessed as reduction in cell proliferation incubated for 3 days by celltiter-glo assay; type: cell-based; conditions: BaF3, 72 h
[2] = Inhibition of EGFR del19/T790M/C797S triple mutant in mouse BAF3 cells assessed as reduction in cell proliferation incubated for 3 days by celltiter-glo assay; type: cell-based; conditions: BaF3, 72 h
HCC827 = test: Antiproliferative activity against human HCC827 cells harboring EGFR Del19 mutant incubated for 72 hrs by SRB assay; type: functional, cell-based; conditions: HCC827, 72 h
[3] = target: Epidermal growth factor receptor (Homo sapiens, UniProt P00533, C797S/L858R/T790M); test: Inhibition of EGFR L858R/T790M/C797S triple mutant (unknown origin) in presence of ATP by FRET assay
Epidermal growth factor receptor (Homo sapiens, UniProt P00533, C797S/L858R/T790M), sequence (P00533 25-1210 T790M/C797S/L858R limits assumed): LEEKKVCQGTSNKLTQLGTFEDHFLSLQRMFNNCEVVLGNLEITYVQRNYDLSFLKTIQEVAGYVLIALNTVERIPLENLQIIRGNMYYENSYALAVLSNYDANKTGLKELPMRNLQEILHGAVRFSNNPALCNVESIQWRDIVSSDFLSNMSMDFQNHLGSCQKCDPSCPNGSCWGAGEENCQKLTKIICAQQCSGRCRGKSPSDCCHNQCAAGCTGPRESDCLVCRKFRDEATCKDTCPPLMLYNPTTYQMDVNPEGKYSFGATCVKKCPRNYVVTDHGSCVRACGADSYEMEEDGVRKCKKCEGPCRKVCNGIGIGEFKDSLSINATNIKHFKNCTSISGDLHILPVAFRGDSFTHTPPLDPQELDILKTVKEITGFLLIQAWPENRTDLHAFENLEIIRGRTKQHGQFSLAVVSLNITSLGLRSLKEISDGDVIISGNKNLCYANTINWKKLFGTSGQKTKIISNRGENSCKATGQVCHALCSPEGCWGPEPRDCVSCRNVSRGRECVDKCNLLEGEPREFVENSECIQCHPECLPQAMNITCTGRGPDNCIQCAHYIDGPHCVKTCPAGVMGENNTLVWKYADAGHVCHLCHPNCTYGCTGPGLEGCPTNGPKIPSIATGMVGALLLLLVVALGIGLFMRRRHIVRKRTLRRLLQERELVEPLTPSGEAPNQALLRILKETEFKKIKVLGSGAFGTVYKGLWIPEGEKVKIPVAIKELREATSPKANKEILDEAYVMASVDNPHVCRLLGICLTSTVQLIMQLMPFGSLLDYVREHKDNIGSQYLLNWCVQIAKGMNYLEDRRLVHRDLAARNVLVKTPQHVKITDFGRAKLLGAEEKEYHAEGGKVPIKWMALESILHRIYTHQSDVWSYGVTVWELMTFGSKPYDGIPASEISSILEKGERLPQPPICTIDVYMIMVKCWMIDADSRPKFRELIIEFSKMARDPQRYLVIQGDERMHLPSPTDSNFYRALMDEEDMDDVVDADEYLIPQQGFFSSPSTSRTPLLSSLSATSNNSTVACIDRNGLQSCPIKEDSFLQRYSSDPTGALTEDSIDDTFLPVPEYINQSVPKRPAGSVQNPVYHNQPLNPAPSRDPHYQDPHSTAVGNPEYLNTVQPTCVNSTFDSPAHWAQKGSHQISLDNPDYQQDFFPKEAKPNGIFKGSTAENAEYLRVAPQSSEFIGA

NCI-H1975 [4] = test: Antiproliferative activity against human NCI-H1975 cells harboring EGFR L858R/T790M/C797S mutant incubated for 72 hrs by SRB assay; type: functional, cell-based; conditions: NCI-H1975, 72 h
A-431 = test: Antiproliferative activity against human A-431 cells harboring wild type EGFR incubated for 72 hrs by SRB assay; type: functional, cell-based; conditions: A-431, 72 h
[5] = target: T1, Epidermal growth factor receptor (Homo sapiens, UniProt P00533); test: Inhibition of wild type EGFR (unknown origin) in presence of ATP by FRET assay
T1 sequence (P00533 whole entry): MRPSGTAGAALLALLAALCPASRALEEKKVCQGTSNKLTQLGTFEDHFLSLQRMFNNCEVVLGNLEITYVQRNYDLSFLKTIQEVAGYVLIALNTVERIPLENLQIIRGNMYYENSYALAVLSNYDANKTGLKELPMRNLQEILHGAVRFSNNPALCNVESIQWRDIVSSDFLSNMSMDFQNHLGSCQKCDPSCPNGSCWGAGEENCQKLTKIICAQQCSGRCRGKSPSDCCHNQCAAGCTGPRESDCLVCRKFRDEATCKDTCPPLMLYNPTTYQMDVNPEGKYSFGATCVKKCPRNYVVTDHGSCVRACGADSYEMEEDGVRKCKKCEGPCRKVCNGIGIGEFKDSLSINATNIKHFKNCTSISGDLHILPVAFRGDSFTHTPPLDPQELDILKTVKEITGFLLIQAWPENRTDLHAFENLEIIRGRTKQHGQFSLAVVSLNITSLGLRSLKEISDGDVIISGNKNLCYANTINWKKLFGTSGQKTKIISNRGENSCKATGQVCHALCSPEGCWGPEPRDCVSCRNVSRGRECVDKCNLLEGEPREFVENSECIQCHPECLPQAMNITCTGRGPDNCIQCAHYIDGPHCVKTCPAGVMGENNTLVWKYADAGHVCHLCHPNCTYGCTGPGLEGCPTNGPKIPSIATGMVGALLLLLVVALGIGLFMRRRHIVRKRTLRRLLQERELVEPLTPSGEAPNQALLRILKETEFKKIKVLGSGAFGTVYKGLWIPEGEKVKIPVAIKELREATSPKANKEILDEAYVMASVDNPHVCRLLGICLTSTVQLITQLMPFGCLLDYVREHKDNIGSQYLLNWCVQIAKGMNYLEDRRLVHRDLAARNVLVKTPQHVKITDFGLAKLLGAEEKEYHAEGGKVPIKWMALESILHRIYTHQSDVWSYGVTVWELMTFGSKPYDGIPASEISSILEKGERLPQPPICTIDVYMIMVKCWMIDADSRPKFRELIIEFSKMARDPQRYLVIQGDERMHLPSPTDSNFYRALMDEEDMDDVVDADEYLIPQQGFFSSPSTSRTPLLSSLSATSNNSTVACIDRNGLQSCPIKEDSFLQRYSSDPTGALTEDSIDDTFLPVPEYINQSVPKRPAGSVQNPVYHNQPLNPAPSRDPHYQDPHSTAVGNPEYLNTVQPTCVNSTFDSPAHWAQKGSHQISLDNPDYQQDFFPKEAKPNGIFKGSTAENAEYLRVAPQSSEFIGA

[6] = target: T2, Epidermal growth factor receptor (Homo sapiens, UniProt P00533, C797S/EX19DEL/T790M); test: Inhibition of EGFR del19/T790M/C797S triple mutant (unknown origin) in presence of ATP by FRET assay
T2 sequence (P00533 whole entry, looked up, stated change not applied): as the sequence (P00533 whole entry) above

PC-9 [7] = test: Antiproliferative activity against human PC-9 cells harboring EGFR Del19/T790M/C797S mutant incubated for 72 hrs by SRB assay; type: functional, cell-based; conditions: PC-9, 72 h
NCI-H1975 [8] = test: Antiproliferative activity against human NCI-H1975 cells harboring EGFR L858R/T790M mutant incubated for 72 hrs by SRB assay; type: functional, cell-based; conditions: NCI-H1975, 72 h
[9] = Plasma protein binding in human assessed as unbound fraction measured after 6 hrs by rapid equilibrium dialysis based LC-MS/MS analysis; type: ADME, cell-free
[10] = Microsomal stability in mouse liver microsome assessed as parent compound remaining preincubated with compound for 60 mins and measured after 1 hr by HPLC analysis; type: ADME; conditions: liver microsomes, time 2 hrs, read-out: Stability
[11] = AUC (0 to 24 hrs) in mouse at 5 mg/kg, iv measured upto 24 hrs by LC-MS/MS analysis; type: ADME, organism-based; conditions: in vivo
[12] = target: T2, Epidermal growth factor receptor; test: Inhibition of EGFR phosphorylation in human PC-9 cells harboring Del19/T790M/C797S mutant incubated for 6 hrs by Western blot analysis; type: cell-based
[13] = Clearance in mouse at 5 mg/kg, iv measured upto 24 hrs by LC-MS/MS analysis; type: ADME, organism-based; conditions: in vivo
[14] = Inhibition of ERK phosphorylation in human A-431 cells harboring wild type EGFR incubated for 6 hrs by Western blot analysis; type: cell-based; conditions: A-431, 6 h
[15] = Plasma protein binding in mouse assessed as unbound fraction measured after 6 hrs by rapid equilibrium dialysis based LC-MS/MS analysis; type: ADME, cell-free
[16] = Stability in mouse plasma assessed as parent compound remaining measured after 2 hrs by LC-MS/MS analysis; type: ADME, cell-free; conditions: read-out: Stability
[17] = Microsomal stability in human liver microsome assessed as parent compound remaining preincubated with compound for 60 mins and measured after 1 hr by HPLC analysis; type: ADME; conditions: liver microsomes, time 2 hrs, read-out: Stability
[18] = Stability in human plasma assessed as parent compound remaining measured after 2 hrs by LC-MS/MS analysis; type: ADME, cell-free; conditions: read-out: Stability
[19] = Inhibition of AKT phosphorylation in human A-431 cells harboring wild type EGFR incubated for 6 hrs by Western blot analysis; type: cell-based; conditions: A-431, 6 h
[20] = Oral bioavailability in mouse at 75 mg/kg measured upto 24 hrs by LC-MS/MS analysis; type: ADME, organism-based; conditions: in vivo
[21] = Toxicity in NOD-SCID mouse xenografted with human PC-9 cells harboring Del19/T790M/C797S triple mutant assessed as body weight loss at 50 mg/kg, sc bid administered for 14 days; type: organism-based; conditions: in vivo, 336 h, time 14 day
[22] = Half life in mouse at 75 mg/kg, po measured upto 24 hrs by LC-MS/MS analysis; type: ADME, organism-based; conditions: in vivo
PC-9 [23] = test: Potency index, ratio of Brigatinib IC50 to test compound IC50 for antiproliferative activity against human PC-9 cells harboring EGFR Del19/T790M/C797S mutant incubated for 72 hrs by SRB assay; type: functional
[24] = Cmax in mouse at 5 mg/kg, iv measured upto 24 hrs by LC-MS/MS analysis; type: ADME, organism-based; conditions: in vivo
NCI-H1975 [25] = test: Potency index, ratio of Brigatinib IC50 to test compound IC50 for antiproliferative activity against human NCI-H1975 cells harboring EGFR L858R/T790M/C797S mutant incubated for 72 hrs by SRB assay; type: functional
[26] = Half life in mouse at 5 mg/kg, iv measured upto 24 hrs by LC-MS/MS analysis; type: ADME, organism-based; conditions: in vivo
[27] = Inhibition of ERK phosphorylation in human PC-9 cells harboring Del19/T790M/C797S mutant incubated for 6 hrs by Western blot analysis; type: cell-based; conditions: PC-9, 6 h
[28] = Toxicity in NOD-SCID mouse xenografted with human PC-9 cells harboring Del19/T790M/C797S triple mutant assessed as clinical signs at 50 mg/kg, sc bid administered for 14 days; type: organism-based; conditions: in vivo, 336 h, time 14 day
[29] = Cmax in mouse at 75 mg/kg, po measured upto 24 hrs by LC-MS/MS analysis; type: ADME, organism-based; conditions: in vivo
[30] = target: T1, Epidermal growth factor receptor; test: Inhibition of EGFR phosphorylation in human A-431 cells harboring wild type EGFR incubated for 6 hrs by Western blot analysis; type: cell-based
[31] = Inhibition of AKT phosphorylation in human PC-9 cells harboring Del19/T790M/C797S mutant incubated for 6 hrs by Western blot analysis; type: cell-based; conditions: PC-9, 6 h
[32] = AUC (0 to 24 hrs) in mouse at 75 mg/kg, po measured upto 24 hrs by LC-MS/MS analysis; type: ADME, organism-based; conditions: in vivo
[33] = Tmax in mouse at 75 mg/kg, po measured upto 24 hrs by LC-MS/MS analysis; type: ADME, organism-based; conditions: in vivo
[34] = Volume of distribution at steady state in mouse at 5 mg/kg, iv measured upto 24 hrs by LC-MS/MS analysis; type: ADME, organism-based; conditions: in vivo, read-out: Vdss

Structure (SMILES): CN(c1ccccc1Nc1nc(Nc2ccc(N3CCCCC3)c(F)c2)nc2[nH]ccc12)S(C)(=O)=O
IC50 [1]: 0.739 µM
IC50 [2]: 0.741 µM

Structure (SMILES): CC(C)N1CCN(c2ccc(Nc3nc(Nc4ccccc4N(C)S(C)(=O)=O)c4cc[nH]c4n3)cc2F)CC1
IC50 [1]: 0.67 µM
IC50 [2]: 0.157 µM

Structure (SMILES): CN(c1ccccc1Nc1nc(Nc2ccc(N3CCCCC3)cc2)nc2[nH]ccc12)S(C)(=O)=O
IC50 [1]: 1.24 µM
IC50 [2]: 0.566 µM

IC50 (HCC827): 0.23 µM
IC50 [3]: 0.0202 µM
IC50 (NCI-H1975 [4]): 0.289 µM
IC50 (A-431): 0.263 µM
IC50 [5]: 1.53 µM
IC50 [6]: 0.004 µM
IC50 (PC-9 [7]): 0.208 µM
IC50 (NCI-H1975 [8]): 0.185 µM
Structure (SMILES): CN1CCN(c2ccc(Nc3nc(Nc4ccccc4N(C)S(C)(=O)=O)c4cc[nH]c4n3)cc2F)CC1
IC50 [1]: 0.267 µM
IC50 [2]: 0.0225 µM

Structure (SMILES): CN1CCN(c2ccc(Nc3nc(Nc4ccccc4N(C)S(C)(=O)=O)c4cc[nH]c4n3)cc2Cl)CC1
IC50 [1]: 0.0474 µM
IC50 [2]: 0.0538 µM

Structure (SMILES): CN1CCN(c2ccc(Nc3nc(Nc4ccccc4N(C4CC4)S(C)(=O)=O)c4cc[nH]c4n3)cc2F)CC1
IC50 [1]: 0.273 µM
IC50 [2]: 0.0559 µM

Structure (SMILES): CCS(=O)(=O)N(C)c1ccccc1Nc1nc(Nc2ccc(N3CCN(C)CC3)c(F)c2)nc2[nH]ccc12
IC50 [1]: 0.238 µM
IC50 [2]: 0.0164 µM

fraction unbound at 6 h [9]: 0.916
remaining at 1 h [10]: 33%
AUC(0-t) at 24 h [11]: 0.978 µg·h/mL
IC50 (HCC827): 0.121 µM
IC50 [12]: 0.0096 µM
clearance [13]: 5.1 L/h/kg
IC50 [3]: 0.0127 µM
IC50 [14]: 3.94 µM
fraction unbound at 6 h [15]: 0.926
remaining at 2 h [16]: 97.8%
remaining at 1 h [17]: 41.9%
remaining at 2 h [18]: 91.8%
IC50 [19]: 2.17 µM
bioavailability [20]: > 100%
IC50 (NCI-H1975 [4]): 0.202 µM
IC50 (A-431): 0.334 µM
half-life [22]: 2.3 h
Cmax [24]: 4.55 µg/mL
IC50 [5]: > 10 µM
half-life [26]: 0.7 h
IC50 [27]: 0.023 µM
IC50 [6]: 0.0092 µM
Cmax [29]: 6.03 µg/mL
IC50 (PC-9 [7]): 0.155 µM
IC50 [30]: 1.32 µM
IC50 (NCI-H1975 [8]): 0.178 µM
IC50 [31]: 0.027 µM
AUC(0-t) at 24 h [32]: 34 µg·h/mL
Tmax [33]: 0.5 h
Vd [34]: 2 L/kg
Structure (SMILES): CCN1CCN(c2ccc(Nc3nc(Nc4ccccc4N(C)S(C)(=O)=O)c4cc[nH]c4n3)cc2F)CC1
IC50 [1]: 0.667 µM
Activity [21]: Non-Toxic
Ratio IC50 (PC-9 [23]): 5.4
Ratio IC50 (NCI-H1975 [25]): 5.4
Activity [28]: Non-Toxic
IC50 [2]: 0.0101 µM

Structure (SMILES): COc1cc(N2CCN(C)CC2)ccc1Nc1nc(Nc2ccccc2N(C)S(C)(=O)=O)c2cc[nH]c2n1
IC50 [1]: 3.17 µM
IC50 [2]: 0.329 µM

Structure (SMILES): CC(C)N(c1ccccc1Nc1nc(Nc2ccc(N3CCN(C)CC3)c(F)c2)nc2[nH]ccc12)S(C)(=O)=O
IC50 [1]: 0.307 µM
IC50 [2]: 0.0712 µM

Structure (SMILES): CN1CCN(c2ccc(Nc3nc(Nc4ccccc4N(C)S(=O)(=O)C4CC4)c4cc[nH]c4n3)cc2F)CC1
IC50 [1]: 0.214 µM
IC50 [2]: 0.0296 µM

fraction unbound at 6 h [9]: 0.937
remaining at 1 h [10]: 24%
AUC(0-t) at 24 h [11]: 1.56 µg·h/mL
IC50 (HCC827): 0.0842 µM
IC50 [12]: 0.0074 µM
clearance [13]: 3.2 L/h/kg
IC50 [3]: 0.0047 µM
IC50 [14]: 1.67 µM
fraction unbound at 6 h [15]: 0.946
remaining at 2 h [16]: 97.4%
remaining at 1 h [17]: 57.3%
remaining at 2 h [18]: 99.1%
IC50 [19]: 1.82 µM
bioavailability [20]: > 100%
IC50 (NCI-H1975 [4]): 0.13 µM
IC50 (A-431): 0.484 µM
half-life [22]: 3.5 h
Cmax [24]: 1.56 µg/mL
IC50 [5]: 10.3 µM
half-life [26]: 1.7 h
IC50 [27]: 0.026 µM
IC50 [6]: 0.0042 µM
Cmax [29]: 5.48 µg/mL
IC50 (PC-9 [7]): 0.151 µM
IC50 [30]: 1.18 µM
IC50 (NCI-H1975 [8]): 0.0988 µM
IC50 [31]: 0.0071 µM
AUC(0-t) at 24 h [32]: 35.8 µg·h/mL
Tmax [33]: 2 h
Vd [34]: 10.8 L/kg
Structure (SMILES): CCN1CCN(C2CCN(c3ccc(Nc4nc(Nc5ccccc5N(C)S(C)(=O)=O)c5cc[nH]c5n4)cc3F)CC2)CC1
IC50 [1]: 0.713 µM
Activity [21]: Non-Toxic
Ratio IC50 (PC-9 [23]): 5.4
Ratio IC50 (NCI-H1975 [25]): 5.4
Activity [28]: Non-Toxic
IC50 [2]: 0.0155 µM

IC50 (HCC827): 0.37 µM
IC50 [3]: 0.0049 µM
IC50 (NCI-H1975 [4]): 0.196 µM
IC50 (A-431): 0.317 µM
IC50 [5]: 4.58 µM
IC50 [6]: 0.004 µM
IC50 (PC-9 [7]): 0.263 µM
IC50 (NCI-H1975 [8]): 0.211 µM
Structure (SMILES): CN1CCN(C2CCN(c3ccc(Nc4nc(Nc5ccccc5N(C)S(C)(=O)=O)c5cc[nH]c5n4)cc3F)CC2)CC1
IC50 [1]: 0.254 µM
IC50 [2]: 0.0114 µM

Structure (SMILES): CN(c1ccccc1Nc1nc(Nc2ccc(N3CCN(C(=O)OC(C)(C)C)CC3)c(F)c2)nc2[nH]ccc12)S(C)(=O)=O
IC50 [1]: 2.4 µM
IC50 [2]: 0.426 µM

— ChEMBL document CHEMBL5634119, “Design and synthesis of 4th generation EGFR inhibitors against human triple (Del19/T790M/C797S) mutation” (Eur J Med Chem, 2023)
